In US6506772B1, “Substituted [1,2,4]triazolo[1,5a]pyridine derivatives with activity as adenosine receptor ligands” (Hoffmann-La Roche Inc., priority 2000, dated 2003):

Legend:
[1] = target: T1, human adenosine A2A receptor (Homo sapiens, UniProt P29274); experiment: Human adenosine A2A receptor [3H]-SCH-58261 binding assay; settings: for Ki: affinity to human adenosine A2A receptor, read-out: Ki HA2A; for selectivity (A1/A2a): calculated ratio of the affinity to the HA1 receptor to the HA2a receptor
T1 construct: expressed in transfected cells; host or cells: CHO cells, Semliki Forest virus expression system; membrane preparation

HA1 adenosine receptor = target: T2, HA1 adenosine receptor (Homo sapiens, UniProt P30542); experiment: Human adenosine A1 receptor affinity (Ki hA1); assay type: binding; settings: affinity to human adenosine A1 receptor
T2 sequence (P30542 1-326): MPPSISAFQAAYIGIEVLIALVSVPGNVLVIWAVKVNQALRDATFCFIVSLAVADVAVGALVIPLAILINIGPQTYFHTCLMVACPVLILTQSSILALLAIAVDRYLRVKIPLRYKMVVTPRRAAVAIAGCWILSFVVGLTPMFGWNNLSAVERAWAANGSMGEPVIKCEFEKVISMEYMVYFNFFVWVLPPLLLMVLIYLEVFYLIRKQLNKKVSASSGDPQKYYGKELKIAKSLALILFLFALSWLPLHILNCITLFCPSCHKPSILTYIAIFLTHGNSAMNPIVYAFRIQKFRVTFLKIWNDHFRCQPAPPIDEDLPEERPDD

T1 sequence (P29274 whole entry): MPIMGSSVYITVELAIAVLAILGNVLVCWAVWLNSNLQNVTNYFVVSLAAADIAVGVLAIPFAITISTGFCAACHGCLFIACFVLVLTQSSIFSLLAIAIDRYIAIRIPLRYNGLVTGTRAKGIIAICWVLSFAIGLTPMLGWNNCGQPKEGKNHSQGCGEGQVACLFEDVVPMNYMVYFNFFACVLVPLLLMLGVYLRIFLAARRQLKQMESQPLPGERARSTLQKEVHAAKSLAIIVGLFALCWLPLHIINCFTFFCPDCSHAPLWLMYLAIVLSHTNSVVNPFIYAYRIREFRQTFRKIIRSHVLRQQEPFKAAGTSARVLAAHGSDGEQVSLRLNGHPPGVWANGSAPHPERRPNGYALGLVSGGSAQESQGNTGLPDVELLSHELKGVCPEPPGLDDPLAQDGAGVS

Row | SMILES | Ki [1] | selectivity (A1/A2a) [1] | Ki (HA1 adenosine receptor)
1 | CCN(CC)C(=O)c1cc(N)n2nc(-c3ccoc3)nc2c1 [Example 153, 5-Amino-2-furan-3-yl-[1,2,4]triazolo[1,5-a]pyridine-7-carboxylic acid diethylamide] | 0.301 µM | 16.0 | 4.8 µM
2 | Nc1cc(C(=O)NC2CCCCC2)cc2nc(-c3ccoc3)nn12 [Example 154, 5-Amino-2-furan-3-yl-[1,2,4]triazolo[1,5-a]pyridine-7-carboxylic acid cyclohexylamide] | 0.0881 µM | 13.3 | 1.18 µM
3 | Nc1cc(C(=O)N2CCCCC2)cc2nc(-c3ccoc3)nn12 [Example 155, (5-Amino-2-furan-3-yl-[1,2,4]triazolo[1,5-a]pyridin-7-yl)-piperidin-1-yl-methanone] | 0.301 µM | 19.4 | 5.85 µM
4 | CCCCNC(=O)c1cc(N)n2nc(-c3ccccc3O)nc2c1 [Example 158, 5-Amino-2-(2-hydroxy-phenyl)-[1,2,4]triazolo[1,5-a]pyridine-7-carboxylic acid butylamide] | 0.0875 µM | 3.0 | 0.258 µM
5 | CCCCNC(=O)c1cc(N)n2nc(-c3cccs3)nc2c1 [Example 161, 5-Amino-2-thiophen-2-yl-[1,2,4]triazolo[1,5-a]pyridine-7-carboxylic acid butylamide] | 0.028 µM | 5.7 | 0.161 µM
6 | Nc1cc(C(=O)NC2CCCCC2)cc2nc(-c3cccs3)nn12 [Example 162, 5-Amino-2-thiophen-2-yl-[1,2,4]triazolo[1,5-a]pyridine-7-carboxylic acid cyclohexylamide] | 0.0614 µM | 4.9 | 0.301 µM
7 | Nc1cc(C(=O)NC2CCCCC2)cc2nc(-c3ccc(Br)o3)nn12 [Example 165, 5-Amino-2-(5-bromo-furan-2-yl)-[1,2,4]triazolo[1,5-a]pyridine-7-carboxylic acid cyclohexylamide] | 0.0888 µM | 8.7 | 0.77 µM
8 | Nc1cc(C(=O)NCc2ccccc2Br)cc2nc(-c3ccc(Br)o3)nn12 [Example 167] | 0.0427 µM | 4.6 | 0.196 µM
9 | CCCCNC(=O)c1cc(N)n2nc(-c3cc(Br)co3)nc2c1 [Example 168, 5-Amino-2-(4-bromo-furan-2-yl)-[1,2,4]triazolo[1,5-a]pyridine-7-carboxylic acid butylamide] | 0.0184 µM | 2.6 | 0.0472 µM
10 | CCN(CC)C(=O)c1cc(N)n2nc(-c3cc(Br)co3)nc2c1 [Example 169, 5-Amino-2-(4-bromo-furan-2-yl)-[1,2,4]triazolo[1,5-a]pyridine-7-carboxylic acid diethylamide] | 0.119 µM | 3.4 | 0.407 µM
11 | Nc1cc(C(=O)N2CCCC2)cc2nc(-c3cc(Br)co3)nn12 [Example 170, [5-Amino-2-(4-bromo-furan-2-yl)-[1,2,4]triazolo[1,5-a]pyridin-7-yl]-pyrrolidin-1-yl-methanone] | 0.0338 µM | 4.5 | 0.152 µM
12 | Nc1cc(C(=O)N2CCCCC2)cc2nc(-c3cc(Br)co3)nn12 [Example 171, [5-Amino-2-(4-bromo-furan-2-yl)-[1,2,4]triazolo[1,5-a]pyridin-7-yl]-piperidin-1-yl-methanone] | 0.0649 µM | 4.3 | 0.276 µM
13 | CC(C)N(Cc1ccccc1)C(=O)c1cc(N)n2nc(-c3cc(Br)co3)nc2c1 [Example 173, 5-Amino-2-(4-bromo-furan-2-yl)-[1,2,4]triazolo[1,5-a]pyridine-7-carboxylic acid benzyl-isopropyl-amide] | 0.0444 µM | 1.7 | 0.0736 µM
14 | Nc1cc(C(=O)NCc2ccccc2Cl)cc2nc(-c3cc(Br)co3)nn12 [Example 174, 5-Amino-2-(4-bromo-furan-2-yl)-[1,2,4]triazolo[1,5-a]pyridine-7-carboxylic acid 2-chloro-benzylamide] | 0.0111 µM | 1.6 | 0.0175 µM
15 | Nc1cc(C(=O)NCc2ccccc2Br)cc2nc(-c3cc(Br)co3)nn12 [Example 175, 5-Amino-2-(4-bromo-furan-2-yl)-[1,2,4]triazolo[1,5-a]pyridine-7-carboxylic acid 2-bromo-benzylamide] | 0.0146 µM | 1.5 | 0.0226 µM
16 | COc1ccc(CNC(=O)c2cc(N)n3nc(-c4cc(Br)co4)nc3c2)cc1 [Example 176, 5-Amino-2-(4-bromo-furan-2-yl)-[1,2,4]triazolo[1,5-a]pyridine-7-carboxylic acid 4-methoxy-benzylamide] | 0.329 µM | 0.5 | 0.151 µM
17 | COc1cc(CNC(=O)c2cc(N)n3nc(-c4cc(Br)co4)nc3c2)cc(OC)c1OC [Example 177, 5-Amino-2-(4-bromo-furan-2-yl)-[1,2,4]triazolo[1,5-a]pyridine-7-carboxylic acid 3,4,5-trimethoxy-benzylamide] | 0.197 µM | 1.3 | 0.266 µM
18 | CCCCNC(=O)c1cc(N)n2nc(-c3cccn3C)nc2c1 [Example 178, 5-Amino-2-(1-methyl-1H-pyrrol-2-yl)-[1,2,4]triazolo[1,5-a]pyridine-7-carboxylic acid butylamide] | 0.0652 µM | 6.9 | 0.45 µM

Second part, the compound after the results:

Row | Ki [1] | selectivity (A1/A2a) [1] | Ki (HA1 adenosine receptor) | SMILES
19 | 0.148 µM | 8.1 | 1.2 µM | CN(C(=O)c1cc(N)n2nc(-c3ccccc3)nc2c1)C1CCCCC1 [Example 148, 5-Amino-2-phenyl-[1,2,4]triazolo[1,5-a]pyridine-7-carboxylic acid cyclohexyl-methyl-amide]
20 | 0.0574 µM | 1.7 | 0.0981 µM | Nc1cc(C(=O)NC2CCc3ccccc32)cc2nc(-c3ccccc3)nn12 (stereo not drawn) [Example 149, 5-Amino-2-phenyl-[1,2,4]triazolo[1,5-a]pyridine-7-carboxylic acid indan-1-ylamide]
21 | 0.0823 µM | 8.6 | 0.711 µM | Nc1cc(C(=O)N2CCCC2)cc2nc(-c3ccccc3)nn12 [Example 150, (5-Amino-2-phenyl-[1,2,4]triazolo[1,5-a]pyridin-7-yl)-pyrrolidin-1-yl-methanone]
22 | 0.0855 µM | 10.8 | 0.928 µM | Nc1cc(C(=O)N2CCCCC2)cc2nc(-c3ccccc3)nn12 [Example 151, (5-Amino-2-phenyl-[1,2,4]triazolo[1,5-a]pyridin-7-yl)-piperidin-1-yl-methanone]
23 | 0.0328 µM | 11.2 | 0.367 µM | CN(Cc1ccccc1)C(=O)c1cc(N)n2nc(-c3ccccc3)nc2c1 [Example 152, 5-Amino-2-phenyl-[1,2,4]triazolo[1,5-a]pyridine-7-carboxylic acid benzyl-methyl-amide]
24 | 0.0171 µM | 13.3 | 0.228 µM | Nc1cc(C(=O)NCc2ccccc2Cl)cc2nc(-c3ccoc3)nn12 [Example 156, 5-Amino-2-furan-3-yl-[1,2,4]triazolo[1,5-a]pyridine-7-carboxylic acid 2-chloro-benzylamide]
25 | 0.018 µM | 12.8 | 0.231 µM | Nc1cc(C(=O)NCc2ccccc2Br)cc2nc(-c3ccoc3)nn12 [Example 157, 5-Amino-2-furan-3-yl-[1,2,4]triazolo[1,5-a]pyridine-7-carboxylic acid 2-bromo-benzylamide]
26 | 0.105 µM | 2.7 | 0.279 µM | Nc1cc(C(=O)NCc2ccccc2Cl)cc2nc(-c3ccccc3O)nn12 [Example 159, 5-Amino-2-(2-hydroxy-phenyl)-[1,2,4]triazolo[1,5-a]pyridine-7-carboxylic acid 2-chloro-benzylamide]
27 | 0.126 µM | 1.1 | 0.139 µM | Nc1cc(C(=O)NCc2ccccc2Br)cc2nc(-c3ccccc3O)nn12 [Example 160, 5-Amino-2-(2-hydroxy-phenyl)-[1,2,4]triazolo[1,5-a]pyridine-7-carboxylic acid 2-bromo-benzylamide]
28 | 0.0311 µM | 4.0 | 0.125 µM | Nc1cc(C(=O)NCc2ccccc2Cl)cc2nc(-c3cccs3)nn12 [Example 163, 5-Amino-2-thiophen-2-yl-[1,2,4]triazolo[1,5-a]pyridine-7-carboxylic acid 2-chloro-benzylamide]
29 | 0.0255 µM | 4.4 | 0.111 µM | Nc1cc(C(=O)NCc2ccccc2Br)cc2nc(-c3cccs3)nn12 [Example 164, 5-Amino-2-thiophen-2-yl-[1,2,4]triazolo[1,5-a]pyridine-7-carboxylic acid 2-bromo-benzylamide]
30 | 0.0397 µM | 5.1 | 0.201 µM | Nc1cc(C(=O)NCc2ccccc2)cc2nc(-c3ccc(Br)o3)nn12 [Example 166, 5-Amino-2-(5-bromo-furan-2-yl)-[1,2,4]triazolo[1,5-a]pyridine-7-carboxylic acid benzylamide]
31 | 0.0297 µM | 0.8 | 0.0247 µM | Nc1cc(C(=O)NCc2ccccc2)cc2nc(-c3cc(Br)co3)nn12 [Example 172, 5-Amino-2-(4-bromo-furan-2-yl)-[1,2,4]triazolo[1,5-a]pyridine-7-carboxylic acid benzylamide]
